The text below walks through data of PMC11220700, “Activation and Purification of ß‐Glucocerebrosidase by Exploiting its Transporter LIMP‐2 – Implications for Novel Treatment Strategies in Gaucher's and Parkinson's Disease” (Advanced Science, 2024).

Entries after “also recorded” stand apart in the source; their conditions may differ. No end group written: not given here.

Series [1] concerns lysosomal GCase in primary human fibroblasts (CTRL‐2, PD‐1, PD‐2). The series is described as follows: Live cell measurement of lysosomal GCase activity (PFB‐Gluc). Format: cell-based. To be noted: 10 µM peptide, 48 h, area between curves (total minus bafilomycin), n = 3. Here is the method:
GCase activity inside the lysosomes of living cells was measured via the fluorescent probe PFB‐Gluc (ThermoFisher Scientific Inc., Waltham, MA, United States, #P11947). The experimental procedure was adapted from Cuddy and Mazzulli.^[ [72] ^] Primary human fibroblasts were seeded at 20 000 cells per well on a black 96‐well cell culture dish with transparent bottom (Corning, Corning, NY, United States, #3603). For each replicate, two wells were seeded. […] The next day, the medium was changed again to 50 µL of fresh media containing treatment. On day 3, one of the two‐seeded wells for each replicate (control well) was treated with 200 nM bafilomycin 1A (Baf, Santa Cruz Biotechnology, Dallas, TX, United States, #sc‐201550A) for 1 h to inhibit lysosomal enzyme activity. […] Immediately after, the first fluorescence measurement was taken (PFB‐Gluc: λ ex: 485 nm; λ em: 538 nm; cutoff: 495 nm). The cells were kept at 37 °C and measured every 30 min for a total of 180 min. […]
For data evaluation, PFB‐Gluc measurements over time were baseline‐corrected and then normalized per well to the respective CellTag 700 signal (cell volume). Replicates were arranged in an XY diagram with their respective Baf control and the AUC for both curves was calculated. Lysosomal activity was then calculated by subtracting the baf control (non‐lysosomal activity) AUC from the non‐inhibited AUC (total activity).

For series [2], the system named is recombinant GCase (Cerezyme/imiglucerase). The series is described as follows: 4MU GCase activity assay with recombinant enzyme Cerezyme/imiglucerase. Format: biochemical. To be noted: varying peptide concentrations, 4MU substrate, detergent‐free, n = 3. Here is the method: Activity of GCase‐containing samples (recombinant protein, cell lysate, LE fractions, conditioned culture medium) was measured using the synthetic substrate 4‐methylumbelliferyl‐β‐D‐glucopyranoside (4MU, Merck Millipore, Billerica, MA, United States, #M3633). […] of the sample (cell supernatant, SEC fractions) or 2.5 µg of total protein from whole‐cell lysates were added to the well of a black 96‐well Maxisorp plate (ThermoFisher Scientific Inc., Waltham, MA, United States, #437 111). The reaction volume was then increased to 100 µL with GCase activity buffer (see paragraph “Cell Lysis”) and a final concentration of 1 µM of 4MU substrate was added. After incubation at 37 °C for 30 min, the reaction was stopped by adding 100 µL of stop solution (0.1 M glycine, pH 10.4). GCase activity was quantified via fluorescence of released 4‐methylumbelliferone (endpoint measurement) using an Infinite 200 Pro (TECAN, Männedorf, Switzerland), SpectraMax Gemini (Molecular Devices, San José, CA, United States) or ClarioStar (BMG LABTECH, Ortenberg, Germany) multiplate reader (λ ex: 365 nm; λ em: 445 nm).
For all activity assays in the presence of recombinant LIMP‐2 or synthetic peptides, sodium taurocholate, and Triton X‐100 were omitted from the reaction to not hinder protein–protein interaction. […]

In series [3] the test system is Parkinson's disease progression. To be noted: ClinicalTrials.gov ID NCT02906020; cited from earlier work. The source says: In the context of diseases, where lysosomal GCase activity is reduced, activation of either impaired mutated GCase or residual wt GCase could provide a therapeutic strategy for restoring lysosomal function. Both in GBA1‐associated and in GBA1‐wt PD models and patients, ongoing preclinical and clinical studies are already exploring this possibility, predominantly at the stage of screening for GCase activators for the treatment of Gaucher and Parkinson's disease.^[ [57], [58] ^] Despite the expected increase of the prevalence of PD and worldwide disease burden due to increasing life expectancy a ...

Series [4] is described as follows: SEC of FRed-L2H5-wt. Format: physicochemical. To be noted: Superdex 200 Increase 10/300 GL, PBS, 0.5 mL min^−1, UV280 and UV580. Here is the method: Two hundred microliters of protein solution were injected using a 500 μL loop. Fractions of 1000 μL were collected. Based on the UV280 and UV580 elution profiles, fraction 15 containing monomeric […] concentrated using a 10K Amicon ultra 0.5 filter unit.

Series [5] has as its system primary human fibroblasts (CTRL‐2, PD‐1, PD‐2). The experiment in a line: Toxicity assessment via LDH release. Format: cell-based. Here is the method:
Primary human fibroblasts were seeded on a 96‐well plate at 3 × 10^4 cells per well. The next day, the medium was replaced with a 50 µL fresh fibroblast medium containing various concentrations of L2H5‐wt peptide (0–20 µM). The cells were incubated for 72 h before the conditioned medium was harvested. LDH release to the cell medium as a marker for cell death was measured using a CyQuant LDH Cytotoxicity Assay Kit (Invitrogen, Waltham, MA, United States #C20300) following the manufacturer's instructions. For each condition, three wells were seeded and measured as triplicates. A480 and […] absorption values were measured using a ClarioStar (BMG LABTECH, Ortenberg, Germany) multiplate reader. LDH enzyme activity was determined by calculating the difference between A480 and A690 values for each well.
On the technique in general: Release of lactate dehydrogenase indicates damage to the cell membrane.

Series [6] can be described thus: Precipitation / solubility of peptide in assay buffers. Format: physicochemical. The settings on record: lysosomal pH 5.0, higher concentrations. Here is the method:
Activity of GCase‐containing samples (recombinant protein, cell lysate, LE fractions, conditioned culture medium) was measured using the synthetic substrate 4‐methylumbelliferyl‐β‐D‐glucopyranoside (4MU, Merck Millipore, Billerica, MA, United States, #M3633). […] of the sample (cell supernatant, SEC fractions) or 2.5 µg of total protein from whole‐cell lysates were added to the well of a black 96‐well Maxisorp plate (ThermoFisher Scientific Inc., Waltham, MA, United States, #437 111). The reaction volume was then increased to 100 µL with GCase activity buffer (see paragraph “Cell Lysis”) and a final concentration of 1 µM of 4MU substrate was added. […] GCase activity was quantified via fluorescence of released 4‐methylumbelliferone (endpoint measurement) using an Infinite 200 Pro (TECAN, Männedorf, Switzerland), SpectraMax Gemini (Molecular Devices, San José, CA, United States) or ClarioStar (BMG LABTECH, Ortenberg, Germany) multiplate reader (λ ex: 365 nm; λ em: 445 nm). […]
For interaction of GCase with L2H5‐wt peptide, recombinant GCase was produced in‐house (see paragraph “Expression and Purification of His‐tagged GCase‐wt Protein”) and labeled as described for Cerezyme. […] For each replicate, a twofold dilution series of 16 samples was measured, starting at 125 µM ligand (L2H5‐wt) concentration. […]

The test system of series [7] is HEK 293T cells. The settings on record: 5 µM L2H5‐wt, LC‐MS/MS.
Procedure: HEK 293T cells were seeded on 10 cm dishes. When confluence was reached, the cells were treated with 5 µM of L2H5‐wt for 2 and 24 h before harvesting. LE fractions were generated as described before (see “Expression and enrichment of lysosomes from HEK 293T cells”). Proteome analysis was performed as described in the following:
The LE fractions were processed using the single‐pot, solid‐phase‐enhanced sample‐preparation (SP3) approach.^[ [74] ^] The proteins were then digested using trypsin overnight at 37 °C. The resultant peptide solution was purified by solid phase extraction in C18 StageTips.^[ [75] ^]
Samples were analyzed using an Orbitrap Exploris 480 mass spectrometer (Thermo Fisher Scientific, Waltham, MA, United States) coupled to an EASY‐nLC 1200 UHPLC system (Thermo Fisher Scientific, Waltham, MA, United States). Peptides were separated in an in‐house packed 60‐cm analytical column (inner diameter: 75 µm; ReproSil‐Pur 120 C18‐AQ 1.9‐µm silica particles, Dr. Maisch, Ammerbuch, Germany) by online reversed‐phase chromatography through a 120‐min gradient of 2.4–32% v/v acetonitrile with 0.1% v/v formic acid at a nanoflow rate of 250 nl min^−1. The eluted peptides were sprayed directly by electrospray ionization into the mass spectrometer. […]

On to “KFERQGSGSQVHFLREDDEAMDKAYQSGSGYGRKKRRQRRR [L2H5‐3xD]”, for which the “lysosomal GCase activity” value in series [1] is given as “did not affect lysosomal GCase activity; also recorded: did not elevate lysosomal GCase activity”. Also, the “effect on GCase activity, concentration dependence” value in series [2] is listed as “no effect on GCase activity”.

As to `CC(C)(NC(=O)O[C@@H]1CN2CCC1CC2)c1csc(-c2ccc(F)cc2)n1` [venglustat], the clinical trial outcome in series [3] was “changing GluCer levels alone may not be sufficient to positively affect disease progression”.

Regarding “QVHFLREIIEAMLKAYQ [FRed‐L2H5‐wt, L2H5‐wt peptide fused to FusionRed, expressed in E. coli]”, the “aggregation in SEC profile” value in series [4] was “The earlier peak likely consists of aggregated protein”.

As to “KFERQGSGSQVHFLREIIEAMLKAYQSGSGYGRKKRRQRRR-NH2 [L2H5‐wt]”, in series [5] (0–20 µM, 72 h, CTRL‐2, PD‐1, PD‐2 fibroblasts, n = 3), the “concentration tolerated (no increase in cell death, LDH release)” value is “up to 10 µM”. Besides, the “LDH release at 20 µM” value in series [5] (20 µM, 72 h, CTRL‐2, PD‐1, PD‐2 fibroblasts, n = 3) is recorded as “strong increase in LDH release; also recorded: LDH activity in the medium was significantly increased”. The “concentration at which cell toxicity starts” value in series [5] (primary fibroblasts) is given as not below 20 µM. Besides, in series [6], the “solubility in MST measurement” value is on record as “insufficient solubility of the peptide at higher concentrations”. Also, in series [7], the “L2H5‐wt‐specific tryptic peptides detected in LE fractions, 2 h” value was “peptides 2 and 3; also recorded: could be detected by mass spectrometry 2 h”.
